Experimental data as given in patent publication US10800791B2, “Triazole ACC inhibitors and uses thereof” (Gilead Apollo, LLC, priority 2015, dated 2020).
pIC50: −log10 of the molar value. In brackets after ≈: the same amount, converted by molar mass. Like-named read-outs stand apart in the source and are kept apart here.

Columns and labels:
[1] = target: fungal (fACC2) (UniProt Q00955); conditions: read-out: fACC2 (in vitro ACC2 Inhibition Assay, IC50), ADP-Glo, 5 nM ACC2, 20 μM ATP, 20 μM acetyl-CoA
Sequence of fungal (fACC2) (Q00955 whole entry): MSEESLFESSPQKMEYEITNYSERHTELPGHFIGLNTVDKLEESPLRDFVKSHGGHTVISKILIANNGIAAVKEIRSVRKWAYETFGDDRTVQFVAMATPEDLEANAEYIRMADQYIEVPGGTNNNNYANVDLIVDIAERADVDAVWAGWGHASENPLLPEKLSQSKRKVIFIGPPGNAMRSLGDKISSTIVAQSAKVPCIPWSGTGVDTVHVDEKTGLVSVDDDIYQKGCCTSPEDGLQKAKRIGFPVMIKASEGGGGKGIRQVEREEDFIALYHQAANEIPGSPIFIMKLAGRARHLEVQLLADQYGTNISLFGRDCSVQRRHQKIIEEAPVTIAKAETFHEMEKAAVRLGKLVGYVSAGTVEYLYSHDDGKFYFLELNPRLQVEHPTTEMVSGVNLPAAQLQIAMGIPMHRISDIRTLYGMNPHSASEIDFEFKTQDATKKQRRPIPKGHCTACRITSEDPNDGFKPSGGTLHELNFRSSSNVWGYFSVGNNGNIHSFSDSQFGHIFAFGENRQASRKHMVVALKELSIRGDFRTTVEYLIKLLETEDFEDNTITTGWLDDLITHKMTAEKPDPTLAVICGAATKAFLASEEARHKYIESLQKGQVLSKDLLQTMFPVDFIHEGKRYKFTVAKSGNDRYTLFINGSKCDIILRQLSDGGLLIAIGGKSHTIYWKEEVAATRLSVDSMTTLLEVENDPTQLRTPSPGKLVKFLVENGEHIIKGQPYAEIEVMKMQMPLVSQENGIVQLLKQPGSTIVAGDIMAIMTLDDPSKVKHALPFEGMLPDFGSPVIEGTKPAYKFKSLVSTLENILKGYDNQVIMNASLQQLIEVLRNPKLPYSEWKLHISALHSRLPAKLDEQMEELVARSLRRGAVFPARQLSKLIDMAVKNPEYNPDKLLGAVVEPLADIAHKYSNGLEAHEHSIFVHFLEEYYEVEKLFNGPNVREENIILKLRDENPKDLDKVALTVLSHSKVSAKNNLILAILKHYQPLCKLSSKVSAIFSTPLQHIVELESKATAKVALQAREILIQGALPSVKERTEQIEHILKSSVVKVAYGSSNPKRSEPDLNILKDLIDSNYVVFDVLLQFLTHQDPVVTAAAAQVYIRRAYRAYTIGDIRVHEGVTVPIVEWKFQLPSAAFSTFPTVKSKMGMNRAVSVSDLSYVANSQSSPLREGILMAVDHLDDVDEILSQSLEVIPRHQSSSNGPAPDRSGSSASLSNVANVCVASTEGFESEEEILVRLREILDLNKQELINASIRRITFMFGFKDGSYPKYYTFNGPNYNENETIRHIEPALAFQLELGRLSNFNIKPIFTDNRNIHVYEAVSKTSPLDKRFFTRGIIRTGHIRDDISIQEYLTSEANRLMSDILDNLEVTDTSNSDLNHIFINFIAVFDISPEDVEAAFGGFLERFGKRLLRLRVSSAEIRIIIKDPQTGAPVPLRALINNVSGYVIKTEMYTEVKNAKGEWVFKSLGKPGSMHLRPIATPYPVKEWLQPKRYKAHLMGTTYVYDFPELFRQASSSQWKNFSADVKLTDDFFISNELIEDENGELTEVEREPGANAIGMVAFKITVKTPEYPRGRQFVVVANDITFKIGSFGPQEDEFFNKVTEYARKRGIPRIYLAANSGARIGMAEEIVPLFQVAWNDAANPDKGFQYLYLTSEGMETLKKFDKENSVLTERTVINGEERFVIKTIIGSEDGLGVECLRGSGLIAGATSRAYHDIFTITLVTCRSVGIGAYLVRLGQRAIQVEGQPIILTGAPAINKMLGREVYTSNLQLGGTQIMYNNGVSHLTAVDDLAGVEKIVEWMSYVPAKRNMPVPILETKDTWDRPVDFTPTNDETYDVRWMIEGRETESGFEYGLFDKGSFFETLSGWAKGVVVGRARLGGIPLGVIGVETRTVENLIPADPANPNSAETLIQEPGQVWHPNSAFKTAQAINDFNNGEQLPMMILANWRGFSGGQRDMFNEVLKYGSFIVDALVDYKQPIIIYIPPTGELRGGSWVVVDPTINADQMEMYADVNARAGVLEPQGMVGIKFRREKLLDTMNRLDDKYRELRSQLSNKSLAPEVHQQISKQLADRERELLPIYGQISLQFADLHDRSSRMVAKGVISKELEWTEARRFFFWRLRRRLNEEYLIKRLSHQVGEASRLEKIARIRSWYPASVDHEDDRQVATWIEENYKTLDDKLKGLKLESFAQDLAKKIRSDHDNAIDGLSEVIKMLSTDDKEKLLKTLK
Method: An exemplary procedure for the in vitro ACC inhibition assay, which can be used to determine the inhibitory action of compounds of the invention toward either human (hACC2) or fungal (fACC2), follows. The ADP-Glo™ Kinase Assay kit from Promega was used. The ADP-Glo™ Kinase Assay is a luminescent ADP detection assay to measure enzymatic activity by quantifying the amount of ADP produced during an enzyme reaction. The assay is performed in two steps; first, after the enzyme reaction, an equal volume of ADP-Glo™ Reagent is added to terminate the reaction and deplete the remaining ATP. Second, the Kinase Detection Reagent is added to simultaneously convert ADP to ATP and allow the newly synthesized ATP to be measured using a luciferase/luciferin reaction. Luminescence can be correlated to ADP concentrations by using an ATP-to-ADP conversion curve. […] 50 μL of the compound being tested (600 μM in DMSO) was added to a 384-well dilution plate. The compound was diluted 1:3 in succession in DMSO for each row for 11 wells. 0.5 μL ACC2 working solution was added to 384-well white Optiplate assay plate. 0.5 μL diluted compound solution in each column from step 2 was added to assay plate, each row containing 2 replicates. […] The plates were incubated at room temperature for 15 minutes. 5 μL substrate working solution was added to each well to initiate reaction. Final ACC2 reaction concentrations consist of: 5 nM ACC2, 20 μM ATP, 20 μM acetyl-CoA, 12 mM NaHCO3, 0.01% Brij35, 2 mM DTT, 5% DMSO, test compound concentrations: 30 μM, 10 μM, 3.33 μM, 1.11 μM, 0.37 μM, 0.123 μM, 0.0411 μM, 0.0137 μM, 0.00457 μM, 0.00152 μM, and 0.00051 μM. Plates were incubated at room temperature for 60 minutes. 10 μL ADP glo reagent was added. Plates were incubated at room temperature for 40 minutes. 20 μL kinase detection reagent was added. Plates were incubated at room temperature for 40 minutes, and then read on a Perkin Elmer EnVision 2104 plate reader for luminescence as Relative Light Units (RLU).
Data for each concentration, as well as the positive and negative controls were averaged, and the standard deviation calculated. Percent inhibition was calculated by the formula: 100×(average negative control−compound)/(average negative control−average positive control). The IC50 for each compound was calculated by fitting the data with a non-linear regression equation: Y=Bottom+(Top−Bottom)/(1+10 ((Log IC50−X)*HillSlope)), where X is the log of compound concentration and Y is percent inhibition.

[2] = target: human (hACC2) (Homo sapiens, UniProt O00763); assay: In vitro ACC inhibition assay (ADP-Glo), hACC2; assay type: biochemical; conditions: 5 nM ACC2, 20 μM ATP, 20 μM acetyl-CoA
Sequence of human (hACC2) (O00763 whole entry): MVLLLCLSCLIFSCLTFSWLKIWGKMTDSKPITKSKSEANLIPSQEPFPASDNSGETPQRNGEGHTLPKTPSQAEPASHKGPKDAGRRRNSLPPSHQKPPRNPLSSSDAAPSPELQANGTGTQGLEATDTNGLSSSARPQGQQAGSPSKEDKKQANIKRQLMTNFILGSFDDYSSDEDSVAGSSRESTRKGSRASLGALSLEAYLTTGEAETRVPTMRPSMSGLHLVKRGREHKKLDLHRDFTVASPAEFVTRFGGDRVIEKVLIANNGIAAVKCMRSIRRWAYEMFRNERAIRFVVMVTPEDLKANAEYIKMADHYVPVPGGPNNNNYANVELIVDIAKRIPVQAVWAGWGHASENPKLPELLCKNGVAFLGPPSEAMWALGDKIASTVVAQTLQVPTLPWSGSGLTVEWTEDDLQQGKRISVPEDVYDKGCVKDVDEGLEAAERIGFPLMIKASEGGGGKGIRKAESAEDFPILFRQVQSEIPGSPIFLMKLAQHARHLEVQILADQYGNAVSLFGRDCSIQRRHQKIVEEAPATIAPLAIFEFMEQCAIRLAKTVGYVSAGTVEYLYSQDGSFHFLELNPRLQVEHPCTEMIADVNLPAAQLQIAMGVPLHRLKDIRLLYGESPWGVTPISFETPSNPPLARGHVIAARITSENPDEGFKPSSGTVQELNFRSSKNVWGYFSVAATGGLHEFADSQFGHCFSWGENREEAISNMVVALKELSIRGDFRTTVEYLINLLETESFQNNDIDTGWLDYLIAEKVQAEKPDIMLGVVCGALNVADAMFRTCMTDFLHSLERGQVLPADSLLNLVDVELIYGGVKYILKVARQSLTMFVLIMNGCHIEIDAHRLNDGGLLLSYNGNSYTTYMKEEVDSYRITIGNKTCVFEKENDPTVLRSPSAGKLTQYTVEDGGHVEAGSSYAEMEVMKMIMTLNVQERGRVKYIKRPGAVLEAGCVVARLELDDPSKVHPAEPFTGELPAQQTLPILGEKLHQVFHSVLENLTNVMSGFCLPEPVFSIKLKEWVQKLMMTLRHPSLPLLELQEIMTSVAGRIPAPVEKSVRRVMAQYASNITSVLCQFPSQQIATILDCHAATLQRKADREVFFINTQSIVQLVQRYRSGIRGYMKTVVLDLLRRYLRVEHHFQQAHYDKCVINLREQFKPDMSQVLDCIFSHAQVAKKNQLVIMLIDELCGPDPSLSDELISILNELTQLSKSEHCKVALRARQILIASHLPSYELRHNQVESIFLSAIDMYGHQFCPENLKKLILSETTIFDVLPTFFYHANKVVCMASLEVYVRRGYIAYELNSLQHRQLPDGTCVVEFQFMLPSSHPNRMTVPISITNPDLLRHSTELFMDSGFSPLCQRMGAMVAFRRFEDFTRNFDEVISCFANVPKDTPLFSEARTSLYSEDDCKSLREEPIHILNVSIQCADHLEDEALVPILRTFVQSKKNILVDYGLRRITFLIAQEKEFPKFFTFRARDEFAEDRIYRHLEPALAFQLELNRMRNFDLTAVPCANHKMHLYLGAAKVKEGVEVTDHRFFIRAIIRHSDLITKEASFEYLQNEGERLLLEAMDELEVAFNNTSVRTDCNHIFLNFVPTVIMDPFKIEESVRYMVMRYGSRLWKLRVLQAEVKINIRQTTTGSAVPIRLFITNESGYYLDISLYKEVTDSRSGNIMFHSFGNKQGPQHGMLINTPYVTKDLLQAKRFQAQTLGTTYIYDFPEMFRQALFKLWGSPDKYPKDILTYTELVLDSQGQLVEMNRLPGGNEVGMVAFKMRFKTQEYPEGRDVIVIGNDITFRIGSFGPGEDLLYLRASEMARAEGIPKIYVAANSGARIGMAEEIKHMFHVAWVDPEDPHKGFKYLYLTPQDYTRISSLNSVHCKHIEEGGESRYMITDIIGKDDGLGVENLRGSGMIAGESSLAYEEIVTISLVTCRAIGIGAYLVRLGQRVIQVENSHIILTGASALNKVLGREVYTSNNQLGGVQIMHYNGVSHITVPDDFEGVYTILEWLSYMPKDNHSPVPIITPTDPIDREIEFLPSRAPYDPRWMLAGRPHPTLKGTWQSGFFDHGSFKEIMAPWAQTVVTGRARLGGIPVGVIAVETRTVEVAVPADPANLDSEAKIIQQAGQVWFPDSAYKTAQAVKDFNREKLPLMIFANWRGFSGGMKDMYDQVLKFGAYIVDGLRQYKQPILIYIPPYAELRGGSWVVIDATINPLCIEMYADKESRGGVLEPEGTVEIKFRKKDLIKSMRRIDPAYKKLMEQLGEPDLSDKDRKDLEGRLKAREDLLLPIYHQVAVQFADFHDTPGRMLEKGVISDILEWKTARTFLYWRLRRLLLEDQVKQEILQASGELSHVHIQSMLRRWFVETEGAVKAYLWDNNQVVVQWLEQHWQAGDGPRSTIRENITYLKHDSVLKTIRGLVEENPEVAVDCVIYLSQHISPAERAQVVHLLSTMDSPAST
Method: The detailed procedure is as follows. […] 10 μL ADP glo reagent was added. […] 20 μL kinase detection reagent was added.

[3] = system: C. krusei; assay: Antifungal Activity Assay (broth microtiter MIC), C. krusei; assay type: cell-based, Candida krusei; conditions: Pichia kudriavzevii, ATCC6258, 48 h
Method: (§1) Compounds of the present invention were evaluated in an Antifungal Activity Assay. An exemplary procedure for the assay, which measures the susceptibility of various Candida species to antifungal compounds, follows. Compounds to be tested (including fluconazole and amphotericin B) were dissolved in DMSO to obtain a solution having a concentration of 1 mg/mL. These stock solutions were sterile filtered using a 0.22 um nylon syringe filter, then diluted in sterile water to achieve a final concentration of 128 μg/mL.
(§2) All species were grown from frozen stock by directly plating on to freshly prepared Sabouraud Dextrose agar (BD, Difco) and incubated overnight in ambient air at 35° C. for 24 h. A direct suspension was prepared in RPMI 1640+MOPS (Lonza, Biowhittaker) by taking individual colonies from the overnight cultures using sterile swabs soaked in sterile saline. The concentration of the suspension was determined using pre-determined standard curves. These suspensions were then diluted down to 5×10^3 CFU/mL to achieve a final concentration of 2.5×10^3 CFU/mL once added to the microtiter plate as per CLSI guidelines (M27-A3, Vol. 28 No. 14).
(§3) Broth microtiter MIC challenge plates were prepared following CLSI guidelines (M27-A3, Vol. 28 No. 14). The original CLSI guidelines focused on reading Candida MICs after 48 h of incubation. As reading after only 24 h offers a clear advantage of patient care, QC limits are being established for all drugs at 24 h. That being said there are no known interpretive breakpoints for amphotericin B at 24 h and the current fluconazole interpretive breakpoints are based on a 48 h reading. The MICs for the test compounds were recorded at 48 h. All MIC determinations were achieved by visually comparing the growth found in the antibiotic challenged wells to that of the growth control.

[4] = system: C. parapsilosis; assay: Antifungal Activity Assay (broth microtiter MIC), C. parapsilosis; assay type: cell-based, Candida parapsilosis; conditions: Lodderomyces parapsilosis, ATCC22019, 48 h
Method: as §1, §2, §3

[5] = system: C. albicans; assay: Antifungal Activity Assay (broth microtiter MIC), C. albicans; assay type: cell-based, Candida albicans; conditions: Candida albicans, ATCC90028, 48 h
Method: as §1, §2, §3

[6] = Table 3a, ATCC 6258, 3 replicates, MIC recorded at 48 h, read-out: MIC, C. krusei ATCC 6258
[7] = Table 3b (additional results), ATCC 6258, 3 replicates, MIC recorded at 48 h, read-out: MIC, C. krusei ATCC 6258
[8] = Table 3a, ATCC 22019, 3 replicates, MIC recorded at 48 h, read-out: MIC, C. parapsilosis ATCC 22019
[9] = Table 3b (additional results), ATCC 22019, 3 replicates, MIC recorded at 48 h, read-out: MIC, C. parapsilosis ATCC 22019
[10] = Table 3a, ATCC 90028, 3 replicates, MIC recorded at 48 h, read-out: MIC, C. albicans ATCC 90028
[11] = Table 3b (additional results), ATCC 90028, 3 replicates, MIC recorded at 48 h, read-out: MIC, C. albicans ATCC 90028
[12] = read-out: MIC, C. krusei ATCC 6258, Table 3b (additional results), 3 replicates, MIC recorded at 48 h
[13] = read-out: MIC, C. parapsilosis ATCC 22019, Table 3b (additional results), 3 replicates, MIC recorded at 48 h
[14] = read-out: MIC, C. albicans ATCC 90028, Table 3b (additional results), 3 replicates, MIC recorded at 48 h

Structure (SMILES) | pIC50 ([1]; Table 2a) | pIC50 ([1]; Table 2b, additional results) | pIC50 ([2]; Table 2a) | pIC50 ([2]; Table 2b, additional results) | MIC [3, 6] [µg/mL] | MIC [3, 7] [µg/mL] | MIC [4, 8] [µg/mL] | MIC [4, 9] [µg/mL] | MIC [5, 10] [µg/mL] | MIC [5, 11] [µg/mL] | MIC [3, 12] [µg/mL] | MIC [4, 13] [µg/mL] | MIC [5, 14] [µg/mL]
COc1ccc(F)cc1[C@H](Cn1c(=O)n(C(C)(C)C(=O)O)c(=O)c2c(C)c(-n3nccn3)sc21)OC[C@H](C)C#N [Compound I-148] | 8.30 to 9.00 | 8.30 to 9.00 | 8.30 to 9.00 | 8.30 to 9.00 | 2.1 to 4 (≈ 3.68 to 7.01 µM) | > 4.01 | 2.1 to 4 (≈ 3.68 to 7.01 µM) | > 4.01 | 2.1 to 4 (≈ 3.68 to 7.01 µM) | 2.01 to 4 (≈ 3.52 to 7.01 µM) | – | – | –
COc1ccc(F)cc1[C@H](Cn1c(=O)n(C(C)(C)C(=O)N2CCCC2)c(=O)c2c(C)c(-n3nccn3)sc21)OCCCO [Compound I-118] | 9.00 to 9.40 | 9.00 to 9.52 | 8.30 to 9.00 | 8.30 to 9.00 | 0.25 to 1 (≈ 0.407 to 1.63 µM) | 1.01 to 2 (≈ 1.64 to 3.25 µM) | 2.1 to 4 (≈ 3.42 to 6.51 µM) | 1.01 to 2 (≈ 1.64 to 3.25 µM) | 1.1 to 2 (≈ 1.79 to 3.25 µM) | 1.01 to 2 (≈ 1.64 to 3.25 µM) | – | – | –
COc1ccc(F)cc1[C@H](Cn1c(=O)n(C(C)(C)C(=O)N2CC=CC2)c(=O)c2c(C)c(-n3nccn3)sc21)OCC(C)=O [Compound I-190] | – | – | – | 8.00 to 8.30 | – | > 4.01 | – | 2.01 to 4 (≈ 3.29 to 6.55 µM) | – | > 4.01 | – | – | –
[2H]C([2H])([2H])Oc1ccccc1[C@H](Cn1c(=O)n(C(C)(C)C(N)=O)c(=O)c2c(C)c(-n3nccn3)sc21)OC1CCOCC1 [Compound I-92] | – | – | 8.00 to 8.30 | 8.00 to 8.30 | 0.25 to 1 (≈ 0.437 to 1.75 µM) | 1.01 to 2 (≈ 1.77 to 3.5 µM) | 1.1 to 2 (≈ 1.92 to 3.5 µM) | 2.01 to 4 (≈ 3.52 to 7 µM) | 0.25 to 1 (≈ 0.437 to 1.75 µM) | 0.25 to 1 (≈ 0.437 to 1.75 µM) | – | – | –
COc1ccc(F)cc1[C@H](Cn1c(=O)n(C(C)(C)C(=O)N2CC(O)C2)c(=O)c2c(C)c(-n3nccn3)sc21)OCC(C)C [Compound I-95] | – | – | 8.00 to 8.30 | 8.00 to 8.30 | 1.1 to 2 (≈ 1.79 to 3.25 µM) | 1.01 to 2 (≈ 1.64 to 3.25 µM) | 1.1 to 2 (≈ 1.79 to 3.25 µM) | 2.01 to 4 (≈ 3.27 to 6.51 µM) | 1.1 to 2 (≈ 1.79 to 3.25 µM) | 2.01 to 4 (≈ 3.27 to 6.51 µM) | – | – | –
Cc1c(-n2nccn2)sc2c1c(=O)n(C(C)(C)C(=O)NC(C)C)c(=O)n2C[C@H](O)c1cc(F)ccc1OCC#N [Compound I-199] | – | – | – | 8.00 to 8.30 | – | – | – | – | – | – | 2.01 to 4 (≈ 3.53 to 7.02 µM) | 1.01 to 2 (≈ 1.77 to 3.51 µM) | 2.01 to 4 (≈ 3.53 to 7.02 µM)
COc1ccc(F)cc1[C@H](Cn1c(=O)n(C(C)(C)C(=O)O)c(=O)c2c(C)c(-n3nccn3)sc21)OC(C)C [Compound I-93] | – | – | 8.00 to 8.30 | 8.00 to 8.30 | 2.1 to 4 (≈ 3.85 to 7.33 µM) | 1.01 to 2 (≈ 1.85 to 3.67 µM) | > 4.1 | > 4.01 | 2.1 to 4 (≈ 3.85 to 7.33 µM) | 2.01 to 4 (≈ 3.68 to 7.33 µM) | – | – | –
COc1ccc(F)cc1[C@H](Cn1c(=O)n(C(C)C(=O)NC(C)C)c(=O)c2c(C)c(-n3nccn3)sc21)OCC(C)(C)O (some centres unmarked) [Compound I-132] | – | – | – | – | 0.25 to 1 (≈ 0.415 to 1.66 µM) | 2.01 to 4 (≈ 3.34 to 6.64 µM) | 0.25 to 1 (≈ 0.415 to 1.66 µM) | 1.01 to 2 (≈ 1.68 to 3.32 µM) | 0.25 to 1 (≈ 0.415 to 1.66 µM) | 1.01 to 2 (≈ 1.68 to 3.32 µM) | – | – | –
Cc1c(-n2nccn2)sc2c1c(=O)n(C(C)(C)C(=O)NC(C)C)c(=O)n2C[C@H](OCC(C)(C)O)c1cc(F)ccc1O [Compound I-236] | – | – | – | 7.40 to 8.00 | – | 2.01 to 4 (≈ 3.34 to 6.64 µM) | – | 2.01 to 4 (≈ 3.34 to 6.64 µM) | – | 1.01 to 2 (≈ 1.68 to 3.32 µM) | – | – | –
COc1ccc(F)cc1[C@H](Cn1c(=O)n(C(C)(C)C(=O)NC(C)C)c(=O)c2c(C)c(-n3nccn3)sc21)OC(C)(C)C(C)=O [Compound I-178] | – | – | 7.40 to 8.00 | 7.40 to 8.00 | – | – | – | – | – | – | 0.25 to 1 (≈ 0.398 to 1.59 µM) | 0.25 to 1 (≈ 0.398 to 1.59 µM) | 0.25 to 1 (≈ 0.398 to 1.59 µM)
COc1ccc(F)cc1[C@H](Cn1c(=O)n(C(C)(C)C(=O)O)c(=O)c2c(C)c(-n3nccn3)sc21)OCC(C)C [Compound I-94] | – | – | 8.30 to 9.00 | 8.30 to 9.00 | 2.1 to 4 (≈ 3.75 to 7.15 µM) | 2.01 to 4 (≈ 3.59 to 7.15 µM) | 2.1 to 4 (≈ 3.75 to 7.15 µM) | > 4.01 | 0.25 to 1 (≈ 0.447 to 1.79 µM) | 2.01 to 4 (≈ 3.59 to 7.15 µM) | – | – | –
COc1ccccc1[C@@H](O)Cn1c(=O)n(C(C)(C)C(=O)OCc2ccccc2)c(=O)c2c(C)c(-n3nccn3)sc21 [Compound I-179] | – | – | < 7.40 | < 7.40 | – | > 4.01 | – | 2.01 to 4 (≈ 3.49 to 6.95 µM) | – | > 4.01 | – | – | –
